Laboratory results: article PMC3950497 (Advances in Pharmacological Sciences, 2014)
Read-outs that look alike come from different tables or passages of the source.

Legend:
[1] = type: in vivo, rabbit; details: for Measured mean concentration of stephaglabrin in plasma: i.m. stephaglabrine sulfate 0.1 mg/kg single dose
Description: The selected rabbits were administrated intramuscular with stephaglabrine sulfate at doses 0.1 mg/kg as it was established before. Each animal received a single dose.
Quantitative analysis was acquired in SRM (selected reactions monitoring) mode on Agilent 6490 triple quadrupole mass spectrometer (Agilent, USA) operated in the positive mode and equipped with Jet Stream ESI ion source. Stepharine was detected in the scheduled selected reaction monitoring (SRM) with unit resolution at both first (Q1) and third (Q3) quadrupoles. The retention time point of stepharine was determined as 9.8 with isolation width of 1 minute for the scheduled SRM method application. The optimal conditions of the analysis were achieved as follows: capillary voltage was −4500 V, nozzle voltage was set at −1200 V, flow rate of drying gas (N2) was 16 L/min, flow rate of sheath gas (N2) was 8 L/min, temperature of drying gas was set at 340°C, temperature of sheath gas was set at 290°C, and nebulizer gas was operated at 20 psi. The transitions for protonated stepharine [M+H]^+ 298.4 → 161.2, 192.1, 238.2 were selected for SRM analysis. The isolation window for the fragment ions was set at 0.27 amu, the optimum fragmentor voltage was adjusted to 310 V and collision energy −19 eV. All the samples including calibration points were analyzed in three replications. 30 μL of the samples was injected and loaded on chromatographic column. Calibration was performed on standard samples solution prepared in 20% acetonitrile with concentration of stepharine from 10^−4 μg/mL to 100 μg/mL. Chromatographic separation was performed on Thermo Hypersil-Keystone ODS column (Thermo Scientific, USA) 100 × 2.1 mm, 5 μm particle size, at flow rate of 200 μL/min and with the following elution conditions: loading onto the column at maintained 20% of mobile phase B for 3 minutes, increasing the gradient to 50% of B at 5 minutes following increasing the gradient to 100% of mobile phase B at 15 minutes. The column was washed and maintained at 100% mobile phase B from 15 to 22 minutes and the composition was decreased to 20% of solvent B at 23 minute. The column was reequilibrated at starting conditions of solvent A-solvent B system ([…], v/v) for 10 minutes at flow 200 μL/min.
0.5 mL of blood samples from each animal was collected from ear vein in the tubes with EDTA before administration and at 15, 30, 60, 90, 120, 180, 480, 720, and 1440 minutes after drug ingestion. Blood samples were immediately put on ice and centrifuged at 5000 g for 10 minutes at 4°C within one hour after blood collection. The obtained plasma was placed in sterile tube and kept at −20°C until analysis.
Plasma proteins were precipitated with acetonitrile. For this purpose, two volumes of acetonitrile were added to 100 μL of rabbit plasma into 1.5 mL plastic tube and 30% ammonia hydroxide was added to adjust the pH to 10. After vortex-mixing for 15 minutes at ambient temperature one volume of chloroform was added three times consequently for 2 hours and incubated at 30°C under regular stirring at 900 rpm at each occasion. The first fraction of upper organic layer was collected after 2 hours of incubation, the second and the third fractions of chloroform extract were collected after additional 30 and 60 minutes of incubation, respectively. The collected fractions were combined and transferred to a new tube and dried under vacuum at 30°C. The resulting pellet was resuspended in 100 μL of 20% water-acetonitrile solution and centrifuged at 14000 rpm for 15 minutes immediately before use. The obtained solution was used for LC-MS analysis. […]

[2] = type: physicochemical
Description: Freeze-thaw stability of stephaglabrine sulfate solution was evaluated because samples were stored at −20°C. The stability of stephaglabrine pool solutions (in water-acetonitrile 20%) at concentrations of 10 μg/mL, 50 μg/mL, and 100 μg/mL was evaluated after three cycles of overnight freezing following 3 hours of bench thaw at ambient temperature. The loss of stepharine was evaluated by comparison with freshly prepared standard solutions of the same concentrations. Loss of 10% and less was accepted.

COc1cc2c3c(c1OC)C1(C=CC(=O)C=C1)C[C@@H]3NCC2 [stepharine]
time of maximum concentration (C max) ([1]; all rabbits, i.m. 0.1 mg/kg stephaglabrine sulfate): 90 min | Measured mean concentration of stephaglabrin in plasma ([1]; rabbit ST01, 15 min after administration): 8.1 ± 0.6 ng/mL | Measured mean concentration of stephaglabrin in plasma ([1]; rabbit ST01, 30 min after administration): 9.4 ± 0.5 ng/mL | Measured mean concentration of stephaglabrin in plasma ([1]; rabbit ST01, 60 min after administration): 10.0 ± 0.3 ng/mL | Measured mean concentration of stephaglabrin in plasma ([1]; rabbit ST01, 90 min after administration): 13.9 ± 0.9 ng/mL | Measured mean concentration of stephaglabrin in plasma ([1]; rabbit ST01, 120 min after administration): 5.8 ± 0.1 ng/mL | Measured mean concentration of stephaglabrin in plasma ([1]; rabbit ST01, 180 min after administration): 3.8 ± 0.1 ng/mL | Measured mean concentration of stephaglabrin in plasma ([1]; rabbit ST01, 480 min after administration): 1.8 ± 0.02 ng/mL | Measured mean concentration of stephaglabrin in plasma ([1]; rabbit ST01, 720 min after administration): 1.5 ± 0.02 ng/mL | Measured mean concentration of stephaglabrin in plasma ([1]; rabbit ST01, 1440 min after administration): 0 ng/mL | Measured mean concentration of stephaglabrin in plasma ([1]; rabbit ST02, 15 min after administration): 7.9 ± 0.2 ng/mL | Measured mean concentration of stephaglabrin in plasma ([1]; rabbit ST02, 30 min after administration): 16.5 ± 0.8 ng/mL | Measured mean concentration of stephaglabrin in plasma ([1]; rabbit ST02, 60 min after administration): 29.3 ± 2.2 ng/mL | Measured mean concentration of stephaglabrin in plasma ([1]; rabbit ST02, 90 min after administration): 33.9 ± 2.8 ng/mL | Measured mean concentration of stephaglabrin in plasma ([1]; rabbit ST02, 120 min after administration): 10.4 ± 0.5 ng/mL | Measured mean concentration of stephaglabrin in plasma ([1]; rabbit ST02, 180 min after administration): 7.8 ± 0.3 ng/mL | Measured mean concentration of stephaglabrin in plasma ([1]; rabbit ST02, 480 min after administration): 1.2 ± 0.02 ng/mL | Measured mean concentration of stephaglabrin in plasma ([1]; rabbit ST02, 720 min after administration): 1.3 ± 0.01 ng/mL | Measured mean concentration of stephaglabrin in plasma ([1]; rabbit ST02, 1440 min after administration): 0 ng/mL | Measured mean concentration of stephaglabrin in plasma ([1]; rabbit ST03, 15 min after administration): 6.8 ± 0.4 ng/mL | Measured mean concentration of stephaglabrin in plasma ([1]; rabbit ST03, 30 min after administration): 14.8 ± 0.2 ng/mL | Measured mean concentration of stephaglabrin in plasma ([1]; rabbit ST03, 60 min after administration): 19.5 ± 0.6 ng/mL | Measured mean concentration of stephaglabrin in plasma ([1]; rabbit ST03, 90 min after administration): 20.4 ± 1.7 ng/mL | Measured mean concentration of stephaglabrin in plasma ([1]; rabbit ST03, 120 min after administration): 6.5 ± 0.1 ng/mL | Measured mean concentration of stephaglabrin in plasma ([1]; rabbit ST04, 15 min after administration): 5.7 ± 0.2 ng/mL | Measured mean concentration of stephaglabrin in plasma ([1]; rabbit ST04, 30 min after administration): 7.3 ± 0.3 ng/mL | Measured mean concentration of stephaglabrin in plasma ([1]; rabbit ST04, 60 min after administration): 9.5 ± 0.5 ng/mL | Measured mean concentration of stephaglabrin in plasma ([1]; rabbit ST04, 90 min after administration): 14.2 ± 0.2 ng/mL | Measured mean concentration of stephaglabrin in plasma ([1]; rabbit ST04, 120 min after administration): 9.7 ± 0.2 ng/mL | Measured mean concentration of stephaglabrin in plasma ([1]; rabbit ST04, 180 min after administration): 2.8 ± 0.2 ng/mL | Measured mean concentration of stephaglabrin in plasma ([1]; rabbit ST04, 480 min after administration): 0.7 ± 0.01 ng/mL | Measured mean concentration of stephaglabrin in plasma ([1]; rabbit ST04, 720 min after administration): 0.6 ± 0.01 ng/mL | Measured mean concentration of stephaglabrin in plasma ([1]; rabbit ST04, 1440 min after administration): 0 ng/mL | Measured mean concentration of stephaglabrin in plasma ([1]; rabbit ST05, 15 min after administration): 6.3 ± 0.2 ng/mL | Measured mean concentration of stephaglabrin in plasma ([1]; rabbit ST05, 30 min after administration): 12.7 ± 0.3 ng/mL | Measured mean concentration of stephaglabrin in plasma ([1]; rabbit ST05, 60 min after administration): 18.5 ± 0.2 ng/mL | Measured mean concentration of stephaglabrin in plasma ([1]; rabbit ST05, 90 min after administration): 21.2 ± 0.2 ng/mL | Measured mean concentration of stephaglabrin in plasma ([1]; rabbit ST05, 120 min after administration): 5.1 ± 0.3 ng/mL | Measured mean concentration of stephaglabrin in plasma ([1]; rabbit ST05, 180 min after administration): 2.9 ± 0.07 ng/mL | Measured mean concentration of stephaglabrin in plasma ([1]; rabbit ST05, 480 min after administration): 1.4 ± 0.08 ng/mL | Measured mean concentration of stephaglabrin in plasma ([1]; rabbit ST05, 720 min after administration): 0.9 ± 0.04 ng/mL | Measured mean concentration of stephaglabrin in plasma ([1]; rabbit ST05, 1440 min after administration): 0 ng/mL | Measured mean concentration of stephaglabrin in plasma ([1]; rabbit ST06, 15 min after administration): 7.0 ± 0.3 ng/mL | Measured mean concentration of stephaglabrin in plasma ([1]; rabbit ST06, 30 min after administration): 13.9 ± 0.2 ng/mL | Measured mean concentration of stephaglabrin in plasma ([1]; rabbit ST06, 60 min after administration): 20.4 ± 0.2 ng/mL | Measured mean concentration of stephaglabrin in plasma ([1]; rabbit ST06, 90 min after administration): 25.8 ± 0.1 ng/mL | Measured mean concentration of stephaglabrin in plasma ([1]; rabbit ST06, 120 min after administration): 7.6 ± 0.09 ng/mL | Measured mean concentration of stephaglabrin in plasma ([1]; rabbit ST06, 180 min after administration): 3.3 ± 0.08 ng/mL | Measured mean concentration of stephaglabrin in plasma ([1]; rabbit ST06, 480 min after administration): 1.2 ± 0.08 ng/mL | Measured mean concentration of stephaglabrin in plasma ([1]; rabbit ST06, 720 min after administration): 0.7 ± 0.02 ng/mL | Measured mean concentration of stephaglabrin in plasma ([1]; rabbit ST06, 1440 min after administration): 0 ng/mL | presence in plasma samples after 24 hours ([1]; rabbits, 24 hours after intramuscular administration): not found | apparent volume of distribution ([1]; rabbits, estimated as ratio of clearance to elimination rate constant, data not shown): extensively distributed throughout the body | loss during three freeze-thaw cycles ([2]; solutions in water-acetonitrile 20% at 10, 50 and 100 μg/mL, overnight freezing, 3 hours bench thaw at ambient temperature): less than 6% | mean sample stability ([2]; three freeze-thaw cycles, solutions in water-acetonitrile 20%): 94.6%
